As a reminder, the EC50 is the concentration needed to bring the measured effect to its halfway point.

Data set [1] deals with Mouse colon tumor CT26 cells. Kind of data set: Mouse colon tumor (CT26) model, anti-tumor efficacy. The data set is classed as in vivo. On the procedure:
Female BALB/C mice from ENVIGO (Frederick, Md.) were received in house at age 6-8 weeks and acclimated for 3-7 days prior to implantation. Mouse colon tumor CT26 cells were implanted subcutaneously at a concentration of 1×10^7 cells/mL, 0.1 mL per injection, using a 1 mL tuberculin syringe with 25 g needle.
On Day 10 post implant, mice were randomized and sorted into groups with 10 mice per group. […] Antibody B was administered i.p. every 4 days for a total of 3 doses.
(§1) Tumors and group body weights were weighed and measured twice weekly until tumors reached a volume of approximately 1500 mm^3. Animals were euthanized if the tumor reached a volume greater than approximately 1500 mm^3 or appeared ulcerated. Mean, median and/or survival plots as well as number of tumor-free mice were calculated to determine efficacy.

The test system of data set [2] is Mouse colon tumor MC38 cells. Briefly: Mouse colon tumor (MC38) model, anti-tumor efficacy. The data set is classed as in vivo. On the procedure:
Female C57BL/6 mice from Charles River Laboratories (Raleigh, N.C.) were received in house at age 6-8 weeks and acclimated for 3-7 days prior to implant. Mouse colon tumor MC38 cells were implanted subcutaneously at a concentration of 1×10^7 cells/mL, 0.1 mL per injection, using a 1 mL tuberculin syringe with 25 g needle.
On Day 6 post implant, mice were randomized and sorted into groups with 10 mice per group. […] Antibody B was administered i.p. every 4 days for a total of 3 doses.
as §1

Data set [3] concerns the target T1, human CCR2 (Homo sapiens, UniProt P41597). Kind of data set: Human CCR2-mediated CD11b integrin upregulation in whole blood. The data set is classed as cell-based. The settings on record: human pharmacology, MCP-1 10 nM, read-out: CCR2 Potency, ligand-induced integrin upregulation in whole blood. On the procedure:
A CCR2-dependent CD11b upregulation assay was established with human whole blood. […] The reactions were incubated for 30 minutes at 37° C. […] The samples were then incubated for 30 minutes on ice in the dark. […] Data acquisition and analysis were performed using CellQuestPro™ software. A sequential gating strategy was used to analyze the CD14high CD11b+ monocyte population. […] A similar procedure for mouse CCR5 was adopted except that MIP-1beta (50 nM) was used as the ligand.

Data set [4] deals with T2, human CCR5 (Homo sapiens, UniProt P51681). Kind of data set: Human CCR5-mediated CD11b integrin upregulation in whole blood. The settings on record: human pharmacology, MIP-1beta 50 nM, read-out: CCR5 Potency, ligand-induced integrin upregulation in whole blood. It counts as cell-based. The arrangement: established with human whole blood; from tissue; host or cells: human whole blood.
T2 sequence (P51681 whole entry): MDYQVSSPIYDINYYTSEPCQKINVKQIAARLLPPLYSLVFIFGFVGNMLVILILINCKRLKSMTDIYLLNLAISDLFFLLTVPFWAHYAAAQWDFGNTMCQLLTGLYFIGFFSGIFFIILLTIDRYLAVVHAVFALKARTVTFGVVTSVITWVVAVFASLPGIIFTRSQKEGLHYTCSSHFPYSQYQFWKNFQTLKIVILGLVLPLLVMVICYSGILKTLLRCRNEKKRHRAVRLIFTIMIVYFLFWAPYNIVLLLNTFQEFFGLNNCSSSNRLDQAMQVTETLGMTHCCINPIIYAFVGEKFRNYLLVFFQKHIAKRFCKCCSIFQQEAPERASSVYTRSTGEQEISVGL

Data set [5] addresses T2, human CCR5. Briefly: Human CCR5-mediated calcium flux in HT1080/CCR5 cells. It counts as cell-based. The settings on record: human pharmacology, MIP-1beta 50 nM, read-out: CCR5 Potency, ligand-induced calcium flux in cells. The procedure:
(§2) All samples were tested in duplicate.

In a further data set the target is T3, mouse CCR2 (Mus musculus, UniProt P51683).
T3 construct: WEHI-274.1 mouse monocyte line; endogenous in cells; host or cells: WEHI-274.1 mouse monocyte line
T3 sequence (P51683 whole entry): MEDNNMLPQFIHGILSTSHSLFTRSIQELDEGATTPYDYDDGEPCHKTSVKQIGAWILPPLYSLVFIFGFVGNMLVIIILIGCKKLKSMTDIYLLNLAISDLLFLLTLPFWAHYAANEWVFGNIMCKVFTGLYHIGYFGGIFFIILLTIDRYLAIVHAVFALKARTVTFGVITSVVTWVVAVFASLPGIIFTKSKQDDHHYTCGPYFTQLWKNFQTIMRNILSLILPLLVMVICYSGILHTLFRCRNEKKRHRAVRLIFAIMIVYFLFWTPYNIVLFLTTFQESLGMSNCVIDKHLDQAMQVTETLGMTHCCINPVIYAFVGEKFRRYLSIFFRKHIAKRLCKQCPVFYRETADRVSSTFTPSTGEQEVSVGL
Kind of data set: Mouse CCR2 potency (assay not specified).

Data set [6] addresses T1, human CCR2. Briefly: Human CCR2-mediated calcium flux in THP-1 cells. Set-up: established with the human monocytic cell line, THP-1; endogenous in cells; host or cells: THP-1 human monocytic cell line. It counts as cell-based. The settings on record: human pharmacology, human MCP-1 10 nM, read-out: CCR2 Potency, ligand-induced calcium flux in cells. On the procedure: as §2
Background: Calcium assays in cells follow changes in intracellular calcium, usually with a dye or a luminescent sensor.

Data set [7] deals with T2, human CCR5. Kind of data set: Inhibition of 125I-MIP-1beta binding to human T cells (human CCR5). Set-up: hPBMCs and human T cells were isolated from human leukopak; endogenous in cells; host or cells: human T cells isolated from human leukopak. To be noted: human pharmacology, 125I-human MIP-1beta, read-out: CCR5 Potency, binding on CCR5-expressing cells (displacing 125I-labelled ligand). The procedure: All conditions were tested in duplicate.

The next data set in a line: Mouse PK of Compound C. The data set is classed as in vivo.
Data set [8] deals with T4, mouse PD-1 (Mus musculus, UniProt Q02242).
T4 construct: expressed in transfected cells; host or cells: CHO cells
T4 sequence (Q02242 25-288): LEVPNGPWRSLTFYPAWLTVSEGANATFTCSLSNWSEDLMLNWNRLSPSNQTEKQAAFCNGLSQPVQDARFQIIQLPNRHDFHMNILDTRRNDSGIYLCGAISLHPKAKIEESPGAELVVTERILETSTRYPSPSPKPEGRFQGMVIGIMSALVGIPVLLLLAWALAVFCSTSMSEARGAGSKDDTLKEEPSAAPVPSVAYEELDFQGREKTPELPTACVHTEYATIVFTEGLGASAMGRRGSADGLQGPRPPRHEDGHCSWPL
Kind of data set: Blocking binding of PD-L2 to mouse PD-1 on CHO transfectants. The settings on record: mouse potency; mouse PD-L2, CHO mouse PD-1; read-out: Blocking PD-L2 binding to PD1-expressing cells for IC50. On the procedure:
CHO transfectants stably expressing human and mouse PD-1 were pre-incubated with titrated mAbs against human and mouse PD-1, respectively, followed by addition of PD-L2-Fc at 15 μg/ml. Cell-bound PD-L2-Fc was detected with a FITC-conjugated secondary to human IgG Fc.

Data set [9] is described as follows: Tolerability in MC38 tumor-bearing mice. It counts as in vivo. The settings on record: MC38 model; alone or in combination. On the procedure:
as §1

The nature of data set [10]: Tolerability in CT26 tumor-bearing mice. It counts as in vivo. To be noted: CT26 model; alone or in combination. The procedure:
as §1

For data set [11], the target named is T4, mouse PD-1. Briefly: Blocking binding of PD-L1 to mouse PD-1 on CHO transfectants. The settings on record: mouse potency; mouse PD-L1, CHO mouse PD-1; read-out: Blocking PD-L1 binding to PD1-expressing cells for IC50. The procedure:
CHO transfectants stably expressing human and mouse PD-1 were pre-incubated with titrated mAbs against human and mouse PD-1, respectively, followed by addition of PD-L1-Fc at 2 μg/mL. Cell-bound PD-L1-Fc was detected with a FITC-conjugated secondary to human IgG Fcγ.

Data set [12] addresses T4, mouse PD-1. Kind of data set: Direct binding of anti-PD-1 mAb to mouse PD-1 on CHO transfectants. To be noted: mouse potency; mouse PD1-expressing CHO cells. On the procedure:
Assays for Direct Binding of Anti-PD-1 Monoclonal Antibody (mAb) to PD1 Stably Expressed on CHO Transfectants
mAbs against human and mouse PD-1 were serially diluted and incubated with CHO cell transfectants stably expressing human and mouse PD-1, respectively, followed by detection with a FITC-conjugated secondary to mouse IgG Fcγ.

T1 sequence (P41597 whole entry): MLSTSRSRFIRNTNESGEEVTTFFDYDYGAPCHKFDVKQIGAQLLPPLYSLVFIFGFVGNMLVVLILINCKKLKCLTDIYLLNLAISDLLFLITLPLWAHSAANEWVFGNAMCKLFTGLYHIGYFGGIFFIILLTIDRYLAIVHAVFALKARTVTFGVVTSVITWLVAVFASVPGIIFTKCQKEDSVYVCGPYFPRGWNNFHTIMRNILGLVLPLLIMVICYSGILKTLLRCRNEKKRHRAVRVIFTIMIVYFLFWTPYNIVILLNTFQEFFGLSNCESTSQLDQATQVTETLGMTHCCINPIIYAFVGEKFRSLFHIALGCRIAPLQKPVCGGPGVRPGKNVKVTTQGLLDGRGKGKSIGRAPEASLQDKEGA

Consider `CCC[C@@H]1C[C@H](N(C)C(C)C)CC[C@@H]1N1CC[C@H](Nc2ncnc3ccc(C(F)(F)F)cc23)C1=O` [Compound A, (S)-1-((1S,2R,4R)-4-(isopropyl(methyl)amino)-2-propylcyclohexyl)-3-((6-(trifluoromethyl)quinazolin-4-yl)amino)pyrrolidin-2-one], for which the Tumor-free mice in [1] (Compound A 12.5 mg/kg PO BID 28 days alone) was 0/10; in data set [1] (Compound A 25 mg/kg PO BID 28 days alone), 0/10; in data set [1] (Compound A 50 mg/kg PO BID 28 days alone), 0/10; in data set [2] (MC38 Study #1, Compound A 25 mg/kg PO BID 28 days alone), 0/10; in [2] (MC38 Study #1, Compound A 50 mg/kg PO BID 28 days alone), 0/10; in [2] (MC38 Study #1, Compound A 100 mg/kg PO BID 28 days alone) it was 0/10. Moreover, the Tumor-free mice in data set [2] (MC38 Study #2, Compound A 6.25 mg/kg PO BID 28 days alone) is given as 0/10; in data set [2] (MC38 Study #2, Compound A 50 mg/kg PO BID 28 days alone) it was 0/10.
As to `CC(=O)N[C@@H]1C[C@H](NC(C)(C)C)CC[C@@H]1N1CC[C@H](Nc2ncnc3cc(C(C)(C)C)nn23)C1=O` [Compound C, N-((1R,2S,5R)-5-(tert-butylamino)-2-((S)-3-(7-tert-butylpyrazolo[1,5-a][1,3,5]triazin-4-ylamino)-2-oxopyrrolidin-1-yl)cyclohexyl)acetamide], the IC50 at human CCR2 [3] turned out to be 4.8 nM; on human CCR5 [4] it was 5.7 nM; at human CCR5 [5], 2 nM; at human CCR2 [6], 2.9 nM; on human CCR5 [7], 3.6 nM. Moreover, the “mouse CCR2 potency” value on mouse CCR2 is on record as “poor”. Moreover, in the data set “Mouse PK of Compound C”, the “mouse PK” value was “poor”.

B1: Antibody B: anti-mouse PD-1 antibody generated by murinizing the Fc tail of 4H2; contains a mouse IgG1 D265A; SEQ ID NO: 1 and 2 (protein)
light: DTVLTQSPALAVSLGQRVTISCKASETVSSSMYSYIHWYQQKPGQQPKLLIYRASNLESGVPARFSGSGSGTDFTLTIDPVEADDVATYFCQQSWNPWTFGGGTKLELKRADAAPTVSIFPPSSEQLTSGGASVVCFLNNFYPKDINVKWKIDGSERQNGVLNSWTDQDSKDSTYSMSSTLTLTKDEYERHNSYTCEATHKTSTSPIVKSFNRNEC
heavy: QVQLKESGPGLVQPSQTLSLTCTVSGFSLTSYNVHWVRQPPGKGLEWMGGMRYNEDTSYNSALKSRLSISRDTSKNQVFLKMNSLQTDDTGTYYCTRDAVYGGYGGWFAYWGQGTLVTVSSAKTTPPSVYPLAPGSAAQTNSMVTLGCLVKGYFPEPVTVTWNSGSLSSGVHTFPAVLQSDLYTLSSSVTVPSSTWPSETVTCNVAHPASSTKVDKKIVPRDCGCKPCICTVPEVSSVFIFPPKPKDVLTITLTPKVTCVVVDISKDDPEVQFSWFVDDVEVHTAQTQPREEQFNSTFRSVSELPIMHQDWLNGKEFKCRVNSAAFPAPIEKTISKTKGRPKAPQVYTIPPPKEQMAKDKVSLTCMITDFFPEDITVEWQWNGQPAENYKNTQPIMDTDGSYFVYSKLNVQKSNWEAGNTFTCSVLHEGLHNHHTEKSLSHSPGK
modifications: Antibody B Light chain variable; Antibody B heavy chain variable
Take B1: the Tumor-free mice is given as 0/10 in [1] (Antibody B 10 mg/kg, 3 doses, alone); 1/10 in [2] (MC38 Study #1, Antibody B 10 mg/kg i.p., 3 doses, alone); 0/10 in data set [2] (MC38 Study #2, Antibody B 10 mg/kg, 3 doses, alone). Further, the IC50 with mouse PD-1 [8] is 4.9 nM; with mouse PD-1 [11] it was 3.6 nM. Moreover, the tolerability entry in data set [9] and in data set [10] was “well tolerated” throughout. For the same molecule, it took 2.9 nM to reach a half-maximal effect with mouse PD-1 [12] (EC50).

Source of the values: patent US20220160718A1, “COMPOSITIONS AND METHODS OF TREATING CANCER” (Bristol-Myers Squibb Company, priority 2018, published 2022).
